Results: patent US20230085307A1, “PYRIDAZINONE COMPOUND AND HERBICIDE” (NISSAN CHEMICAL CORPORATION, priority 2019, published 2023)

Assays:
wild oat [1] = test: Test Example 5: herbicidal effect by foliage application, plastic box (Table 20, symbol I); format: in vivo, wild oat (Avena fatua); settings: foliage application, 320 g/ha, three weeks after application
Procedure, shortened: (§1)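 Foliar spray test: emulsion formulation diluted in water to a set application rate, sprayed onto 14-day-old plants raised in diluvial soil at 25° C to 30° C under glass. Both herbicidal effect and crop effect rated visually three weeks later.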

late watergrass = test: Test Example 1: herbicidal activity, application before weed generation under submerged conditions (Table 16, symbol A); format: in vivo, late watergrass (Echinochloa oryzicola)
Procedure, shortened: (§2)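 Submerged Wagner pots (alluvial soil, 4 cm water) sown with weed seeds and planted with 2.5-leaf rice seedlings; emulsifiable concentrate diluted in water applied to water surface on sowing day. Held in greenhouse at 25-30 °C; injury scored 0-5 by herbicidal rate after three weeks.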

barnyard grass [2] = test: Test Example 4: herbicidal effect by soil treatment (Table 19, symbol H); format: in vivo, barnyard grass (Echinochloa crus-galli); settings: amount of applied herbicide 320 g/ha
Procedure, shortened: (§3)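 Step 1: sow seeds in sterilized diluvial soil, cover ~1.5 cm. Step 2: spray diluted emulsion onto soil surface at predetermined rate. Step 3: greenhouse, 25–30° C, three weeks. Step 4: grade effect on each plant by earlier criteria.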

persian speedwell [3] = test: Test Example 5: herbicidal effect by foliage application, plastic box (Table 20, symbol R); format: in vivo, Persian speedwell (Veronica persica); settings: foliage application, 320 g/ha, three weeks after application
Procedure, shortened: as §1

barnyard grass [4] = test: Test Example 5: herbicidal effect by foliage application, plastic box (Table 20, symbol H); format: in vivo, barnyard grass (Echinochloa crus-galli); settings: foliage application, 320 g/ha, three weeks after application
Procedure, shortened: as §1

windgrass [5] = test: Test Example 5: herbicidal effect by foliage application, plastic box (Table 20, symbol L); format: in vivo, windgrass (Apera spica-venti); settings: foliage application, 320 g/ha, three weeks after application
Procedure, shortened: as §1

velvetleaf [6] = test: Test Example 4: herbicidal effect by soil treatment (Table 19, symbol M); format: in vivo, velvetleaf (Abutilon theophrasti); settings: amount of applied herbicide 320 g/ha
Procedure, shortened: as §3

green foxtail [7] = test: Test Example 5: herbicidal effect by foliage application, plastic box (Table 20, symbol G); format: in vivo, green foxtail (Setaria viridis); settings: foliage application, 320 g/ha, three weeks after application
Procedure, shortened: as §1

persian speedwell [8] = test: Test Example 4: herbicidal effect by soil treatment (Table 19, symbol R); format: in vivo, Persian speedwell (Veronica persica); settings: amount of applied herbicide 320 g/ha
Procedure, shortened: as §3

wild oat [9] = test: Test Example 4: herbicidal effect by soil treatment (Table 19, symbol I); format: in vivo, wild oat (Avena fatua); settings: amount of applied herbicide 320 g/ha
Procedure, shortened: as §3

velvetleaf [10] = test: Test Example 5: herbicidal effect by foliage application, plastic box (Table 20, symbol M); format: in vivo, velvetleaf (Abutilon theophrasti); settings: foliage application, 320 g/ha, three weeks after application
Procedure, shortened: as §1

Italian ryegrass [11] = test: Test Example 5: herbicidal effect by foliage application, plastic box (Table 20, symbol K); format: in vivo, Italian ryegrass (Lolium multiflorum); settings: foliage application, 320 g/ha, three weeks after application
Procedure, shortened: as §1

blackgrass [12] = test: Test Example 4: herbicidal effect by soil treatment (Table 19, symbol J); format: in vivo, blackgrass (Alopecurus myosuroides); settings: amount of applied herbicide 320 g/ha
Procedure, shortened: as §3

redroot pigweed [13] = test: Test Example 5: herbicidal effect by foliage application, plastic box (Table 20, symbol N); format: in vivo, redroot pigweed (Amaranthus retroflexus); settings: foliage application, 320 g/ha, three weeks after application
Procedure, shortened: as §1

windgrass [14] = test: Test Example 4: herbicidal effect by soil treatment (Table 19, symbol L); format: in vivo, windgrass (Apera spica-venti); settings: amount of applied herbicide 320 g/ha
Procedure, shortened: as §3

chickweed [15] = test: Test Example 4: herbicidal effect by soil treatment (Table 19, symbol P); format: in vivo, common chickweed (Stellaria media); settings: amount of applied herbicide 320 g/ha
Procedure, shortened: as §3

barnyard grass [16] = test: Test Example 3: herbicidal effect by foliage application, Wagner pot (Table 18, symbol H); format: in vivo, barnyard grass (Echinochloa crus-galli); settings: 320 g/ha
Procedure, shortened: (§4)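 Plants were sown in alluvial soil held under 0.1–0.5 cm standing water and grown 14 days in a greenhouse at 25–30 °C. An emulsifiable formulation, water-diluted to the set dose, was then sprayed onto the foliage, and effects were scored three weeks later using previously defined criteria.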

rice flat sedge = test: Test Example 3: herbicidal effect by foliage application, Wagner pot (Table 18, symbol E); format: in vivo, rice flat sedge (Cyperus iria); settings: 320 g/ha
Procedure, shortened: as §4

green foxtail [17] = test: Test Example 4: herbicidal effect by soil treatment (Table 19, symbol G); format: in vivo, green foxtail (Setaria viridis); settings: amount of applied herbicide 320 g/ha
Procedure, shortened: as §3

Chinese sprangletop = test: Test Example 3: herbicidal effect by foliage application, Wagner pot (Table 18, symbol D); format: in vivo, chinese sprangletop (Leptochloa chinensis); settings: 320 g/ha
Procedure, shortened: as §4

oval-leafed pondweed = test: Test Example 1: herbicidal activity, application before weed generation under submerged conditions (Table 16, symbol C); format: in vivo, oval-leafed pondweed (Monochoria vaginalis)
Procedure, shortened: as §2

southern crabgrass [18] = test: Test Example 4: herbicidal effect by soil treatment (Table 19, symbol F); format: in vivo, southern crabgrass (Digitaria ciliaris); settings: amount of applied herbicide 320 g/ha
Procedure, shortened: as §3

chickweed [19] = test: Test Example 5: herbicidal effect by foliage application, plastic box (Table 20, symbol P); format: in vivo, common chickweed (Stellaria media); settings: foliage application, 320 g/ha, three weeks after application
Procedure, shortened: as §1

southern crabgrass [20] = test: Test Example 5: herbicidal effect by foliage application, plastic box (Table 20, symbol F); format: in vivo, southern crabgrass (Digitaria ciliaris); settings: foliage application, 320 g/ha, three weeks after application
Procedure, shortened: as §1

blackgrass [21] = test: Test Example 5: herbicidal effect by foliage application, plastic box (Table 20, symbol J); format: in vivo, blackgrass (Alopecurus myosuroides); settings: foliage application, 320 g/ha, three weeks after application
Procedure, shortened: as §1

Japanese bulrush = test: Test Example 1: herbicidal activity, application before weed generation under submerged conditions (Table 16, symbol B); format: in vivo, Japanese bulrush (Schoenoplectus juncoides)
Procedure, shortened: as §2

lambsquarters [22] = test: Test Example 4: herbicidal effect by soil treatment (Table 19, symbol O); format: in vivo, lambsquarters (Chenopodium album); settings: amount of applied herbicide 320 g/ha
Procedure, shortened: as §3

lambsquarters [23] = test: Test Example 5: herbicidal effect by foliage application, plastic box (Table 20, symbol O); format: in vivo, lambsquarters (Chenopodium album); settings: foliage application, 320 g/ha, three weeks after application
Procedure, shortened: as §1

redroot pigweed [24] = test: Test Example 4: herbicidal effect by soil treatment (Table 19, symbol N); format: in vivo, redroot pigweed (Amaranthus retroflexus); settings: amount of applied herbicide 320 g/ha
Procedure, shortened: as §3

Italian ryegrass [25] = test: Test Example 4: herbicidal effect by soil treatment (Table 19, symbol K); format: in vivo, Italian ryegrass (Lolium multiflorum); settings: amount of applied herbicide 320 g/ha
Procedure, shortened: as §3

false cleavers = test: Test Example 4: herbicidal effect by soil treatment (Table 19, symbol Q); format: in vivo, false cleavers (Galium spurium); settings: amount of applied herbicide 320 g/ha
Procedure, shortened: as §3

[26] = amount of applied herbicide 320 g/ha

## CCCC(=O)Oc1c(C)nn(C)c(=O)c1-c1c(-c2ccc(F)c(C)c2)sc2ccccc12 [1-052]
Wild oat [1]
  herbicidal effect grade, I: wild oat: 0 (Herbicidal rate of 5% or less (almost no effect))
Late watergrass; 320 g/ha applied herbicide
  Herbicidal effect on A: late watergrass (grade 0-5): 3 (Herbicidal rate of 40% or more and less than 70%)
Barnyard grass [2]
  herbicidal effect rating, H: barnyard grass: 3 (Herbicidal rate of 40% or more and less than 70%)
Persian speedwell [3]
  herbicidal effect grade, R: persian speedwell: 1 (Herbicidal rate of 5% or more and less than 20%)
Barnyard grass [4]
  herbicidal effect grade, H: barnyard grass: 3 (Herbicidal rate of 40% or more and less than 70%)
Windgrass [5]
  herbicidal effect grade, L: windgrass: 0 (Herbicidal rate of 5% or less (almost no effect))
Velvetleaf [6]
  herbicidal effect rating, M: velvetleaf: 0 (Herbicidal rate of 5% or less (almost no effect))
Green foxtail [7]
  herbicidal effect grade, G: green foxtail: 5 (Herbicidal rate of 90% or more (almost completely withered))
Persian speedwell [8]
  herbicidal effect rating, R: persian speedwell: 3 (Herbicidal rate of 40% or more and less than 70%)
Wild oat [9]
  herbicidal effect rating, I: wild oat: 0 (Herbicidal rate of 5% or less (almost no effect))
Velvetleaf [10]
  herbicidal effect grade, M: velvetleaf: 5 (Herbicidal rate of 90% or more (almost completely withered))
Italian ryegrass [11]
  herbicidal effect grade, K: Italian ryegrass: 0 (Herbicidal rate of 5% or less (almost no effect))
Blackgrass [12]
  herbicidal effect rating, J: blackgrass: 0 (Herbicidal rate of 5% or less (almost no effect))
Redroot pigweed [13]
  herbicidal effect grade, N: redroot pigweed: 3 (Herbicidal rate of 40% or more and less than 70%)
Windgrass [14]
  herbicidal effect rating, L: windgrass: 0 (Herbicidal rate of 5% or less (almost no effect))
Chickweed [15]
  herbicidal effect rating, P: chickweed: 4 (Herbicidal rate of 70% or more and less than 90%)
Barnyard grass [16]
  herbicidal effect on H (barnyard grass), rating 0-5: 3 (Herbicidal rate of 40% or more and less than 70%)
Rice flat sedge
  herbicidal effect on E (rice flat sedge), rating 0-5: 5 (Herbicidal rate of 90% or more (almost completely withered))
Green foxtail [17]
  herbicidal effect rating, G: green foxtail: 4 (Herbicidal rate of 70% or more and less than 90%)
Chinese sprangletop
  herbicidal effect on D (Chinese sprangletop), rating 0-5: 2 (Herbicidal rate of 20% or more and less than 40%)
oval-leafed pondweed; 320 g/ha applied herbicide
  Herbicidal effect on C: oval-leafed pondweed (grade 0-5): 3 (Herbicidal rate of 40% or more and less than 70%)
Southern crabgrass [18]
  herbicidal effect rating, F: southern crabgrass: 1 (Herbicidal rate of 5% or more and less than 20%)
Chickweed [19]
  herbicidal effect grade, P: chickweed: 5 (Herbicidal rate of 90% or more (almost completely withered))
Southern crabgrass [20]
  herbicidal effect grade, F: southern crabgrass: 2 (Herbicidal rate of 20% or more and less than 40%)
Blackgrass [21]
  herbicidal effect grade, J: blackgrass: 0 (Herbicidal rate of 5% or less (almost no effect))
Japanese bulrush; 320 g/ha applied herbicide
  Herbicidal effect on B: Japanese bulrush (grade 0-5): 1 (Herbicidal rate of 5% or more and less than 20%)
Lambsquarters [22]
  herbicidal effect rating, O: lambsquarters: 2 (Herbicidal rate of 20% or more and less than 40%)
Lambsquarters [23]
  herbicidal effect grade, O: lambsquarters: 3 (Herbicidal rate of 40% or more and less than 70%)
Redroot pigweed [24]
  herbicidal effect rating, N: redroot pigweed: 0 (Herbicidal rate of 5% or less (almost no effect))
Italian ryegrass [25]
  herbicidal effect rating, K: Italian ryegrass: 1 (Herbicidal rate of 5% or more and less than 20%)
False cleavers
  herbicidal effect rating, Q: false cleavers: 0 (Herbicidal rate of 5% or less (almost no effect))

## Cc1nn(C)c(=O)c(-c2c(-c3ccc(OC(F)F)cc3)sc3cc(F)ccc23)c1O [3-141]
Wild oat [1]
  I: wild oat, herbicidal effect grade: 1 (Herbicidal rate of 5% or more and less than 20%)
Late watergrass; [26]
  Herbicidal effect, A: late watergrass: 3 (Herbicidal rate of 40% or more and less than 70%)
Barnyard grass [2]
  Herbicidal effect by soil treatment, H: barnyard grass: 3 (Herbicidal rate of 40% or more and less than 70%)
Persian speedwell [3]
  R: persian speedwell, herbicidal effect grade: 5 (Herbicidal rate of 90% or more (almost completely withered))
Barnyard grass [4]
  H: barnyard grass, herbicidal effect grade: 4 (Herbicidal rate of 70% or more and less than 90%)
Windgrass [5]
  L: windgrass, herbicidal effect grade: 5 (Herbicidal rate of 90% or more (almost completely withered))
Velvetleaf [6]
  Herbicidal effect by soil treatment, M: velvetleaf: 3 (Herbicidal rate of 40% or more and less than 70%)
Green foxtail [7]
  G: green foxtail, herbicidal effect grade: 5 (Herbicidal rate of 90% or more (almost completely withered))
Persian speedwell [8]
  Herbicidal effect by soil treatment, R: persian speedwell: 4 (Herbicidal rate of 70% or more and less than 90%)
Wild oat [9]
  Herbicidal effect by soil treatment, I: wild oat: 0 (Herbicidal rate of 5% or less (almost no effect))
Velvetleaf [10]
  M: velvetleaf, herbicidal effect grade: 5 (Herbicidal rate of 90% or more (almost completely withered))
Italian ryegrass [11]
  K: Italian ryegrass, herbicidal effect grade: 5 (Herbicidal rate of 90% or more (almost completely withered))
Blackgrass [12]
  Herbicidal effect by soil treatment, J: blackgrass: 3 (Herbicidal rate of 40% or more and less than 70%)
Redroot pigweed [13]
  N: redroot pigweed, herbicidal effect grade: 5 (Herbicidal rate of 90% or more (almost completely withered))
Windgrass [14]
  Herbicidal effect by soil treatment, L: windgrass: 3 (Herbicidal rate of 40% or more and less than 70%)
Chickweed [15]
  Herbicidal effect by soil treatment, P: chickweed: 3 (Herbicidal rate of 40% or more and less than 70%)
Barnyard grass [16]
  herbicidal effect on barnyard grass (H): 5 (Herbicidal rate of 90% or more (almost completely withered))
Rice flat sedge
  herbicidal effect on rice flat sedge (E): 5 (Herbicidal rate of 90% or more (almost completely withered))
Green foxtail [17]
  Herbicidal effect by soil treatment, G: green foxtail: 1 (Herbicidal rate of 5% or more and less than 20%)
Chinese sprangletop
  herbicidal effect on Chinese sprangletop (D): 2 (Herbicidal rate of 20% or more and less than 40%)
oval-leafed pondweed; [26]
  Herbicidal effect, C: oval-leafed pondweed: 0 (Herbicidal rate of 5% or less (almost no effect))
Southern crabgrass [18]
  Herbicidal effect by soil treatment, F: southern crabgrass: 0 (Herbicidal rate of 5% or less (almost no effect))
Chickweed [19]
  P: chickweed, herbicidal effect grade: 5 (Herbicidal rate of 90% or more (almost completely withered))
Southern crabgrass [20]
  F: southern crabgrass, herbicidal effect grade: 0 (Herbicidal rate of 5% or less (almost no effect))
Blackgrass [21]
  J: blackgrass, herbicidal effect grade: 4 (Herbicidal rate of 70% or more and less than 90%)
Japanese bulrush; [26]
  Herbicidal effect, B: Japanese bulrush: 0 (Herbicidal rate of 5% or less (almost no effect))
Lambsquarters [22]
  Herbicidal effect by soil treatment, O: lambsquarters: 5 (Herbicidal rate of 90% or more (almost completely withered))
Lambsquarters [23]
  O: lambsquarters, herbicidal effect grade: 5 (Herbicidal rate of 90% or more (almost completely withered))
Redroot pigweed [24]
  Herbicidal effect by soil treatment, N: redroot pigweed: 5 (Herbicidal rate of 90% or more (almost completely withered))
Italian ryegrass [25]
  Herbicidal effect by soil treatment, K: Italian ryegrass: 3 (Herbicidal rate of 40% or more and less than 70%)
False cleavers
  Herbicidal effect by soil treatment, Q: false cleavers: 0 (Herbicidal rate of 5% or less (almost no effect))
